Test results from patent US8173682B2, “Substituted pyridones as inhibitors of poly(ADP-ribose) polymerase (PARP)” (Aventis Pharmaceuticals Inc., priority 2004, dated 2012).

target: recombinantly expressed human PARP-1 enzyme (Homo sapiens, UniProt P09874); experiment: PARP enzyme assay, Method B (tritium-labeled NAD incorporation); format: biochemical; details: Method B; 200 μM NAD, room temperature 1 hour, pH 8.0; read-out: IC50 (μM)/Method B
Description: Method B: PARP Enzyme Assay:
The IC50 is determined in this method by incubating the substances to be tested with the DNA-activated, recombinantly expressed and purified PARP-1 enzyme. Specifically, various concentrations of the test substance are incubated in 50 μL of reaction solution, which contains 50 mM Tris, 5 mM MgCl2, 1 mM DTT, 200 μM NAD, 0.1 m Ci/mL tritium-labeled NAD, 0.1 mg/mL DNA, 0.1 mg/mL histones, 2 μg/mL recombinantly expressed human PARP-1 enzyme, pH=8.0, at room temperature for 1 hour. The reaction is stopped by adding 150 μL of 20% trichloroacetic acid, and the radiolabeled protein constituents are precipitated. After incubation on ice for 10 minutes, the labeled, insoluble constituents are separated off through a glass fiber filter and, after washing with 20% trichloroacetic acid three times, the radioactivity incorporated by the PARP-1 enzyme is measured by radioluminescence. Consideration of the incorporation rates determined in this way as a function of the concentration of the test substance results in IC50 as the concentration of the test substance which reduces the incorporation rate to half the maximum value attainable (incubation without inhibitor).
The IC50 (fifty percent inhibitory concentration of the test substance in a solution—expressed at micromolar (μM) concentration) measured in accordance with these procedures for the compounds of this invention are summarized in Table 1.

Chain of recombinantly expressed human PARP-1 enzyme (P09874 whole entry): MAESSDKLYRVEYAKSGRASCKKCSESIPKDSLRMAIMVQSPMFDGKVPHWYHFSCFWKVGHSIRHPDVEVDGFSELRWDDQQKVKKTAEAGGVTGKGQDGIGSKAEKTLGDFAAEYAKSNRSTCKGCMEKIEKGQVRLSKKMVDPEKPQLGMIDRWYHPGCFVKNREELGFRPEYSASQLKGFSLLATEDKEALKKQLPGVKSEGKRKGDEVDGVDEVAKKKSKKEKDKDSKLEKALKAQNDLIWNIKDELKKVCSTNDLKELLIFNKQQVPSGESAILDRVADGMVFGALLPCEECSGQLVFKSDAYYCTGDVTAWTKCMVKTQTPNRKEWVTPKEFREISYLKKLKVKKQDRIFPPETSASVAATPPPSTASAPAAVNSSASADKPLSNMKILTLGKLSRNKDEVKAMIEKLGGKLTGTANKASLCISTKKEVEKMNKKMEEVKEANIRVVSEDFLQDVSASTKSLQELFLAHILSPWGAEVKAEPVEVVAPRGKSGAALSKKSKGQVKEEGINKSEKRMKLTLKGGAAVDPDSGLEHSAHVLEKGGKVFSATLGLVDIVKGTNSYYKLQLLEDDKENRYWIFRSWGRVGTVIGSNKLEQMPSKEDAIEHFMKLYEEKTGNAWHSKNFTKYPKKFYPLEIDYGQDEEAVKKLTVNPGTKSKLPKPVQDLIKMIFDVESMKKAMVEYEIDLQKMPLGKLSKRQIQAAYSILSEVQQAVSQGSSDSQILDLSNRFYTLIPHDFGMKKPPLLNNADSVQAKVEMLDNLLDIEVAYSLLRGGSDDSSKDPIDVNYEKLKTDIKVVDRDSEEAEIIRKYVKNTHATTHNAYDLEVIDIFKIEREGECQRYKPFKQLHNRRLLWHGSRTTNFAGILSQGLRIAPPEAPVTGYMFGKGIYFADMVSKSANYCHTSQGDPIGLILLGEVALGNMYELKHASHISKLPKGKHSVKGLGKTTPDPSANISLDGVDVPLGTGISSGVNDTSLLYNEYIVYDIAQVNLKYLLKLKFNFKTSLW

| Structure (SMILES) | IC50 |
| --- | --- |
| CCc1cc(-c2cncc(C(=O)NCCOC)c2)c(C)[nH]c1=O [Example 261, 5′-Ethyl-2′-methyl-6′-oxo-1′,6′-dihydro-[3,3′]bipyridinyl-5-carboxylic acid (2-methoxy-ethyl)-amide] | 2.07 µM |
| CCc1cc(-c2cncc(C(=O)NC(c3cccnc3)C3CC3)c2)c(C)[nH]c1=O (stereo not drawn) [Example 228, 5′-Ethyl-2′-methyl-6′-oxo-1′,6′-dihydro-[3,3′]bipyridinyl-5-carboxylic acid (cyclopropyl-pyridin-3-yl-methyl)-amide] | 10.7 µM |
| CCc1cc(-c2ccc(CNC(=O)CN3CCCC3)s2)c(C)[nH]c1=O [Example 276, N-[5-(5-Ethyl-2-methyl-6-oxo-1,6-dihydropyridin-3-yl)-thiophen-2-ylmethyl]-2-pyrrolidin-1-yl-acetamide] | 0.8 µM |
| CCc1cc(-c2cncc(C(=O)NCC3CCC(C#N)CC3)c2)c(C)[nH]c1=O (stereo not drawn) [Example 262, 5′-Ethyl-2′-methyl-6′-oxo-1′,6′-dihydro-[3,3′]bipyridinyl-5-carboxylic acid (4-cyano-cyclohexylmethyl)-amide] | 2.22 µM |
| CCc1cc(-c2cccc(NS(=O)(=O)c3ccc(NC(C)=O)cc3)n2)c(C)[nH]c1=O [Example 278, N-[4-(5′-Ethyl-2′-methyl-6′-oxo-1′,6′-dihydro-[2,3′]bipyridinyl-6-ylsulfamoyl)-phenyl]-acetamide] | 7.9 µM |
| CCc1cc(-c2cncc(C(=O)N3CCCC3)c2)c(C)[nH]c1=O [Example 226, 5-Ethyl-2-methyl-5′-(pyrrolidine-1-carbonyl)-1H-[3,3′]bipyridinyl-6-one] | 0.95 µM |
| CCc1cc(-c2cccc(C(=O)N3CCCC3)n2)c(C)[nH]c1=O [Example 207, 5′-Ethyl-2′-methyl-6-(pyrrolidine-1-carbonyl)-1′H-[2,3′]bipyridinyl-6′-one] | 4.72 µM |
| CCc1cc(-c2cncc(C(=O)NCc3ccc(S(N)(=O)=O)cc3)c2)c(C)[nH]c1=O [Example 255, 5′-Ethyl-2′-methyl-6′-oxo-1′,6′-dihydro-[3,3′]bipyridinyl-5-carboxylic acid 4-sulfamoyl-benzylamide] | 0.28 µM |
| CCc1cc(-c2cc(C(=O)N3CCCC3)ccn2)c(C)[nH]c1=O [Example 214, 5′-Ethyl-2′-methyl-4-(pyrrolidine-1-carbonyl)-1′H-[2,3′]bipyridinyl-6′-one] | 1.4 µM |
| CCc1cc(-c2coc(CN3CCCC3)c2)c(C)[nH]c1=O [Example 181A] | 2.17 µM |
| CCc1cc(-c2cccc(CN3CCC(O)CC3)n2)c(C)[nH]c1=O [Example 182I, 5′-Ethyl-6-(4-hydroxy-piperidin-1-ylmethyl)-2′-methyl-1′H-[2,3′]bipyridinyl-6′-one] | 8.61 µM |
| CCc1cc(-c2ccc(S(=O)(=O)NCc3c[nH]c4ccccc34)s2)c(C)[nH]c1=O [Example 122D, 5-(5-Ethyl-2-methyl-6-oxo-1,6-dihydro-pyridin-3-yl)-thiophene-2-sulfonic acid (1H-indol-3-ylmethyl)-amide] | 0.06 µM |
| CCc1cc(-c2cncc(C(=O)NCCc3cccc(OC)c3)c2)c(C)[nH]c1=O [Example 240, 5′-Ethyl-2′-methyl-6′-oxo-1′,6′-dihydro-[3,3′]bipyridinyl-5-carboxylic acid [2-(3-methoxy-phenyl)-ethyl]-amide] | 3.88 µM |
| CCc1cc(-c2cncc(C(=O)NCC(=O)c3ccc(OC)cc3)c2)c(C)[nH]c1=O [Example 256, 5′-Ethyl-2′-methyl-6′-oxo-1′,6′-dihydro-[3,3′]bipyridinyl-5-carboxylic acid [2-(4-methoxy-phenyl)-2-oxo-ethyl]-amide] | 0.45 µM |
| CCc1cc(-c2cncc(C(=O)Nc3ccccc3CC(N)=O)c2)c(C)[nH]c1=O [Example 251, 5′-Ethyl-2′-methyl-6′-oxo-1′,6′-dihydro-[3,3′]bipyridinyl-5-carboxylic acid (2-carbamoylmethyl-phenyl)-amide] | 0.1 µM |
